The text below walks through data of US7179825B2, “Retinoic acid mimetic anilides” (Janssen Pharmaceutica N.V., priority 1997, dated 2007).

pIC50: −log10 of the molar value.

The test system of assay [1] is metabolism of retinoic acid in human breast cancer cells. Put plainly: Inhibition of retinoic acid (RA) metabolism (Example C.1). In kind it is cell-based. As to conditions: MCF-7 human breast cancer cells, 3H-RA as substrate, concentration needed to reduce the amount of metabolites to 50% of the control. Summed up:
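Test compound (in 1% DMSO) added at several concentrations to MCF-7 cell suspensions fed ³H-RA, after RA induction of metabolism one day earlier. Scintillation counting of the separated polar metabolite fraction; IC50 = concentration giving 50% of control metabolite level.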

The subject of assay [2] is Ovariectomized rats. Put plainly: Vaginal keratinization test on ovariectomized rats (Example C.2). In kind it is in vivo. The conditions noted are these: estradiol undecylate induced keratinization, per os once daily on days 1-3, active dose = 50% of rats show complete suppression; for minimal effective dose: Rattus norvegicus, po, read-out: LAD (lowest active dose). The method, boiled down:
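Value is the lowest oral dose (mg/kg) at which half of tested rats show complete suppression of estradiol undecylate-induced vaginal keratinization by histology. Ovariectomized rats received 100 μg/100 g estradiol undecylate s.c., then compound or PEG 200 vehicle p.o. daily for three days; sacrifice one day later.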

Take `C/C(=C\c1cc(=O)[nH]c2ccccc12)C(=O)Nc1ccc(C(C(C)C)n2ccnc2)cc1` (racemic) [Compound 603]: the pIC50 in assay [1] was < 7.00. For the same compound, in assay [2], the “LAD (lowest active dose)” value is recorded as >10.00 mg/kg.

With `C/C(=C\c1ccccn1)C(=O)Nc1ccc(C(C(C)C)n2ccnc2)cc1` (racemic) [Compound 604], the pIC50 in assay [1] is 8.54. In addition, the “LAD (lowest active dose)” value in assay [2] was >10.00 mg/kg.

With `CC(=Cc1cccn1C)C(=O)Nc1ccc(C(C(C)C)n2ccnc2)cc1` (racemic) [Compound 605], the pIC50 in assay [1] is 7.85. Further, in assay [2], the “LAD (lowest active dose)” value is recorded as >10.00 mg/kg.

Take `CCOc1c(F)c(F)c(/C=C(\C)C(=O)Nc2ccc(C(C(C)C)n3ccnc3)cc2)c(F)c1F` (racemic) [Compound 606]: the pIC50 in assay [1] was 7.87. In assay [2], the “LAD (lowest active dose)” value is >10.00 mg/kg.

As for `C/C(=C\c1ccc(F)c(Br)c1)C(=O)Nc1ccc(C(C(C)C)n2ccnc2)cc1` (racemic) [Compound 608], the pIC50 in assay [1] was 8.18. Further, in assay [2], the “LAD (lowest active dose)” value is >10.00 mg/kg.

Turning to `C/C(=C\c1ccc(C(F)(F)F)cc1F)C(=O)Nc1ccc(C(C(C)C)n2ccnc2)cc1` (racemic) [Compound 609], the pIC50 in assay [1] is 7.96. For the same compound, in assay [2], the “LAD (lowest active dose)” value stood at 10.00 mg/kg.

In the case of `C/C(=C\c1ccc([N+](=O)[O-])cc1)C(=O)Nc1ccc(C(C(C)C)n2ccnc2)cc1` (racemic) [Compound 610], the pIC50 in assay [1] was 8.19. In assay [2], the “LAD (lowest active dose)” value is >10.00 mg/kg.

For the compound `C/C(=C\c1ccc(N)cc1)C(=O)Nc1ccc(C(C(C)C)n2ccnc2)cc1` (racemic) [Compound 611, (±)-(E)-2-[(4-aminophenyl)methylene]-N-[4-[1-(1H-imidazol-1-yl)-2-methylpropyl]phenyl]propanamide], the pIC50 in assay [1] (MCF7) was 8.47. The minimal effective dose in assay [2] worked out at 10 mg/kg.

On to `O=C(Cc1ccccc1)Nc1ccc(C(c2cccc(C(F)(F)F)c2)n2cncn2)cc1` (racemic) [Compound 614], for which the pIC50 in assay [1] is 6.56. In addition, the “LAD (lowest active dose)” value in assay [2] is >20.00 mg/kg.

On to `O=C(/C=C/c1ccccc1)Nc1ccc(C(c2cccc(F)c2)n2cncn2)cc1` (racemic) [Compound 618], for which the pIC50 in assay [1] was 7.80. The “LAD (lowest active dose)” value in assay [2] was >20.00 mg/kg.

As to `O=C(Cc1ccccc1)Nc1ccc(C(c2cccc(F)c2)n2cncn2)cc1` (racemic) [Compound 619], in assay [1], the pIC50 was 7.45. The “LAD (lowest active dose)” value in assay [2] is >20.00 mg/kg.

As to `CCC(CC)C(c1ccc(NC(=O)C2Oc3ccccc3O2)cc1)n1cncn1` (racemic) [Compound 621], the pIC50 in assay [1] was 8.90. The “LAD (lowest active dose)” value in assay [2] was determined as 1.25 mg/kg.

As to `CC(C)(C)CC(c1ccc(NC(=O)Cc2ccc(Cl)cc2)cc1)n1cncn1` (racemic) [Compound 623], the pIC50 in assay [1] was 8.86. The “LAD (lowest active dose)” value in assay [2] was >5.00 mg/kg.

Take `CCCC(C)C(c1ccc(NC(=O)Cc2ccc(OC)c(OC)c2)cc1)n1cncn1` (racemic) [Compound 639]: the pIC50 in assay [1] was 8.77. For the same compound, the “LAD (lowest active dose)” value in assay [2] is given as 2.50 mg/kg.

Regarding `CCCC(CCC)C(c1ccc(NC(=O)Cc2ccc(OC)c(OC)c2)cc1)n1cncn1` (racemic) [Compound 644], in assay [1], the pIC50 is 9.53. For the same compound, in assay [2], the “LAD (lowest active dose)” value was determined as 2.50 mg/kg.

`CC(C)C(c1ccc(NC(=O)Cc2cccc(Cl)c2)cc1)n1ccnc1` (racemic) [Compound 652]: in assay [1], the negative logarithm of the IC50 (pIC50) was < 7.00. For the same compound, the “LAD (lowest active dose)” value in assay [2] is given as 10.00 mg/kg.

Consider `CC(C)C(c1ccc(NC(=O)Cc2ccc(F)cc2)cc1)n1ccnc1` (racemic) [Compound 653], for which, in assay [1], the pIC50 was 8.87. In addition, in assay [2], the “LAD (lowest active dose)” value is given as 5.00 mg/kg.

`CC(C)C(c1ccc(NC(=O)Cc2cccc(C(F)(F)F)c2)cc1)n1ccnc1` (racemic) [Compound 654]: the pIC50 in assay [1] was 8.63. Moreover, the “LAD (lowest active dose)” value in assay [2] turned out to be 5.00 mg/kg.

As for `CC(C)C(c1ccc(NC(=O)C(c2ccccc2)c2ccccc2)cc1)n1ccnc1` (racemic) [Compound 655], the negative logarithm of the IC50 (pIC50) in assay [1] was 7.79. The “LAD (lowest active dose)” value in assay [2] is on record as >10.00 mg/kg.

Consider `CC(C)C(C(=O)Nc1ccc(C(C(C)C)n2ccnc2)cc1)c1ccccc1` (racemic) [Compound 658], for which, in assay [1], the pIC50 was 8.26. Besides, in assay [2], the “LAD (lowest active dose)” value is >10.00 mg/kg.

For the compound `CCOc1ccc(CC(=O)Nc2ccc(C(C(C)C)n3ccnc3)cc2)cc1` (racemic) [Compound 663], the pIC50 in assay [1] is 8.71. Also, the “LAD (lowest active dose)” value in assay [2] is recorded as 2.50 mg/kg.

For the compound `COc1cccc(CC(=O)Nc2ccc(C(C(C)C)n3ccnc3)cc2)c1` (racemic) [Compound 665], the pIC50 in assay [1] is 8.23. Further, the “LAD (lowest active dose)” value in assay [2] was 2.50 mg/kg.

For `Cc1ccc(CC(=O)Nc2ccc(C(C(C)C)n3ccnc3)cc2)cc1` (racemic) [Compound 666], the pIC50 in assay [1] was 7.84. The “LAD (lowest active dose)” value in assay [2] was 2.50 mg/kg.

On to `CC(C)C(c1ccc(NC(=O)Cc2cccc(O)c2)cc1)n1ccnc1` (racemic) [Compound 667], for which the negative logarithm of the IC50 (pIC50) in assay [1] is 8.80. Besides, in assay [2], the “LAD (lowest active dose)” value is on record as 5.00 mg/kg.

As for `C/C(=C\c1ccccc1)C(=O)Nc1ccc(C(c2cccnc2)C(C)C)cc1` (racemic) [Compound 679], the pIC50 in assay [1] is < 6.00. Besides, the “LAD (lowest active dose)” value in assay [2] is listed as >20.00 mg/kg.

As to `C/C(=C\c1ccccc1)C(=O)Nc1ccc(C(c2ccncc2)C(C)C)cc1` (racemic) [Compound 681], the pIC50 in assay [1] is < 6.00. Besides, in assay [2], the “LAD (lowest active dose)” value was >20.00 mg/kg.

As for `CC(C)C(c1ccc(NC(=O)Cc2ccc(Cl)cc2)cc1)c1cccnc1` (racemic) [Compound 686], the pIC50 in assay [1] was 7.37. For the same compound, the “LAD (lowest active dose)” value in assay [2] is >10.00 mg/kg.

For `CC(C)C(c1ccc(NC(=O)Nc2cccc(F)c2)cc1)c1cccnc1` (racemic) [Compound 690], in assay [1], the negative-log IC50 (pIC50) was < 7.00. For the same compound, in assay [2], the “LAD (lowest active dose)” value was >10.00 mg/kg.

Regarding `CC(C)C(c1ccncc1)c1ccc(NC(=O)Nc2cccc(F)c2)cc1` (racemic) [Compound 692], the pIC50 in assay [1] was 7.42. Further, in assay [2], the “LAD (lowest active dose)” value is >10.00 mg/kg.

On to `CNC(=S)Nc1ccc(C(C(C)C)n2ccnc2)cc1` (racemic) [Compound 696], for which, in assay [1], the pIC50 was 8.09. Moreover, in assay [2], the “LAD (lowest active dose)” value was >10.00 mg/kg.

Turning to `CC(C)C(c1ccc(NC(=S)Nc2ccccc2)cc1)n1ccnc1` (racemic) [Compound 697], in assay [1], the pIC50 is 7.77. The “LAD (lowest active dose)” value in assay [2] amounted to 10.00 mg/kg.

As to `CC(C)C(c1ccc(NC(=S)NC(=O)c2ccccc2)cc1)n1ccnc1` (racemic) [Compound 698, (±)-N-benzoyl-N′-[4-[1-(1H-imidazol-1-yl)-2-methylpropyl]phenyl]thiourea], the pIC50 in assay [1] (MCF7) is 7.40. In assay [2], the minimal effective dose was determined as 20 mg/kg.

In the case of `CC(C)C(c1ccc(NC(=S)Nc2ccccc2F)cc1)n1ccnc1` (racemic) [Compound 700], the pIC50 in assay [1] was 7.92. In addition, the “LAD (lowest active dose)” value in assay [2] was 5.00 mg/kg.

For the compound `CCOc1ccc(NC(=O)Nc2ccc(C(C(C)C)n3ccnc3)cc2)cc1` (racemic) [Compound 707], the pIC50 in assay [1] is 7.89. The “LAD (lowest active dose)” value in assay [2] turned out to be 5.00 mg/kg.

Consider `COc1ccc(NC(=O)Nc2ccc(C(C(C)C)n3ccnc3)cc2)cc1OC` (racemic) [Compound 708], for which the pIC50 in assay [1] was 8.79. Further, the “LAD (lowest active dose)” value in assay [2] is reported as >5.00 mg/kg.

As to `O=C(Nc1ccc(C(c2cccc(C(F)(F)F)c2)n2ccnc2)cc1)Nc1cc(F)ccc1F` (racemic) [Compound 709], the pIC50 in assay [1] was 8.62. Besides, the “LAD (lowest active dose)” value in assay [2] is on record as 5.00 mg/kg.

`CCC(CC)C(c1ccc(NC(=O)Nc2cc(F)ccc2F)cc1)n1ccnc1` (racemic) [Compound 710]: the pIC50 in assay [1] was 9.73. Further, in assay [2], the “LAD (lowest active dose)” value is reported as 2.50 mg/kg.

As for `O=C(Nc1ccc(C(c2cccc(C(F)(F)F)c2)n2cncn2)cc1)Nc1cccc(F)c1` (racemic) [Compound 711], the pIC50 in assay [1] is < 7.00. The “LAD (lowest active dose)” value in assay [2] is 5.00 mg/kg.

Turning to `CCC(CC)C(c1ccc(NC(=O)Nc2cc(F)ccc2F)cc1)n1cncn1` (racemic) [Compound 712], the pIC50 in assay [1] was 11.37. In assay [2], the “LAD (lowest active dose)” value turned out to be 5.00 mg/kg.

As to `CCC(CC)C(c1ccc(NC(=O)Nc2ccccc2F)cc1)n1ccnc1` (racemic) [Compound 713], the pIC50 in assay [1] is 8.86. In addition, in assay [2], the “LAD (lowest active dose)” value was determined as 2.50 mg/kg.

As to `CCC(CC)C(c1ccc(NC(=O)Nc2ccccc2F)cc1)n1cncn1` (racemic) [Compound 715], the pIC50 in assay [1] is 9.81. In assay [2], the “LAD (lowest active dose)” value is given as >2.50 mg/kg.

Take `CCC(CC)C(c1ccc(NC(=O)Nc2ccc(OC)c(OC)c2)cc1)n1cncn1` (racemic) [Compound 718]: the pIC50 in assay [1] was 9.88. The “LAD (lowest active dose)” value in assay [2] was 2.50 mg/kg.

On to `COc1ccc(NC(=O)Nc2ccc(C(C(C)C)n3ccnc3)cc2)cc1` (racemic) [Compound 722], for which the pIC50 in assay [1] is 8.38. Further, the “LAD (lowest active dose)” value in assay [2] stood at 5.00 mg/kg.

In the case of `CCC(CC)C(c1ccc(NC(=O)Nc2cccc(F)c2)cc1)n1cncn1` (racemic) [Compound 723], the pIC50 in assay [1] is 8.95. The “LAD (lowest active dose)” value in assay [2] stood at 5.00 mg/kg.

Regarding `CCC(CC)C(c1ccc(NC(=O)Nc2cccc(F)c2)cc1)n1ccnc1` (racemic) [Compound 724], the pIC50 in assay [1] is 8.93. In addition, the “LAD (lowest active dose)” value in assay [2] is on record as 2.50 mg/kg.

What is called pIC50 is the IC50 on a negative log10 scale, so that one unit is a factor of ten.
